In patent US20020156115A1, “Insecticidal and acaricidal composition, and methods of using the same” (AGRO-KANESHO CO., LTD., priority 1999, published 2002):

Experiments:
Type in all cases: in vivo
[1] = tested on: eggs of two-spotted red spiders (Tetranychus telarius); experiment: Acaricidal effect on eggs of two-spotted red spiders, ovicidal rate, 500 ppm spray; details: eggs on green bean leaf disc; spray 3.5 ml; concentration 500 ppm; 8 days after treatment
Protocol: Acaricidal Effect on Eggs of Two-Spotted Red Spiders (Tetranychus telarius) 5 female imagoes of two-spotted red spiders were released on a green been leaf disc (diameter: 3 cm). Then, the imagoes were left to lay eggs on the leaf disc for 20 hours and then removed therefrom. The present acaricide which had been prepared according to Preparation Example 1 was diluted with water to a predetermined concentration. 3.5 ml of the preparation thus obtained was sprayed with a rotary spraying column (Mizuho Rika) over the disc (concentration: 500 ppm, repetition: twice). 8 days after the treatment, the number of unhatched eggs was counted to determine the ovicidal rate (%).

[2] = tested on: two-spotted red spiders (Tetranychus telarius); experiment: Acaricidal effect on two-spotted red spiders, imago-killing rate, 500 ppm leaf immersion; details: female imagoes on green bean leaf, leaf immersion about 5 seconds, concentration 500 ppm, fifth day after treatment, 25° C.
Protocol: (§1) Acaricidal Effect on Larvae of Two-Spotted Red Spiders (Tetranychus telarius): A stem of green bean seedling having only one primary left was placed in a test tube (capacity: 50 ml) containing water. 15 female imagoes of two-spotted red spiders were put on each leaf. One day after, the leaf having the two-spotted red spiders was immersed (about 5 seconds) in the present insecticide diluted with water, which had been prepared according to the Preparation Example, (concentration: 500 ppm, repetition: twice). They were kept in a constant-temperature room at 25° C. On the fifth day after the treatment, the female imagoes on the leaf of the green bean seedling were observed. The imago-killing rate (%) was determined on the basis of the results of the observation to obtain the results shown in Table 6.

[3] = tested on: diamond backmoth (Plutella xylostera); experiment: Insecticidal effect on larvae of diamond backmoth (cabbage leaf dip); details: 500 ppm; cabbage leaf immersed 1 minute; third-instar larvae; fourth day; 25° C.
Protocol: Insecticidal Effect on Larvae of Diamond Backmoth (Plutella xylostera) The present insecticide prepared according to the Preparation Example was diluted with water. A piece (diameter: 6 cm) of a cabbage leaf was immersed in the diluted insecticide for 1 minute. After air drying, the piece was placed in a plastic cup (inner diameter: 7 cm). 5 third-instar larvae of diamond backmoth (Plutella xylostera) were put in the cup (1 concentration, repetition: twice). The cup was kept in a constant temperature room at 25° C. On the fourth day, the survival rate and degree of writhing of the larvae were examined. The writhing larvae were each counted to be ½.

[4] = tested on: two-spotted red spiders (Tetranychus telarius); experiment: Acaricidal effect of a low concentration (12.5 ppm) on two-spotted red spiders; details: leaf immersion, female imagoes, fifth day after treatment, 25° C.
Protocol: as §1, with “A” for “Acaricidal Effect on Larvae of Two-Spotted Red Spiders (Tetranychus telarius): A”
Acaricidal Effect of a Low Concentration of Acaricide on Larvae of Two-Spotted Red Spiders (Tetranychus telarius)
The same tests as those of Test Example 2 were repeated except that the concentration of the acaricide was changed to 12.5 ppm.

Compound | Ovicidal rate (%) [1] [%] | Acaricidal rate (%) [2] [%] | Killing rate [3] [%] | acaricidal effect [4] [%]
CO/C=C(/C(=O)OC)c1c(C#Cc2cccc(C(F)(F)F)c2)c(C)nn1C [Table 1-2] | 100 | 100 | 60 | –
COC=C(C(=O)OC)c1c(C#Cc2ccc(C(F)(F)F)cc2)c(C)nn1C [Table 1-3, Methyl α-{1,3-dimethyl-4-(4-trifluoromethylphenylethynyl)-5-pyrazole}-β-methoxyacrylate] | 100 | 100 | 80 | 100
COC=C(C(=O)OC)c1c(C#Cc2cc(C(F)(F)F)cc(C(F)(F)F)c2)c(C)nn1C [Table 1-5, Methyl α-[1,3-dimethyl-4-{3,5-bis(trifluoromethyl)phenylethynyl}-5-pyrazole]-β-methoxyacrylate] | 100 | 100 | 100 | 100
CO/C=C(/C(=O)OC)c1c(C#Cc2cc(F)cc(Cl)c2)c(C)nn1C [Table 1-7] | 100 | 100 | 80 | 100
CO/C=C(/C(=O)OC)c1c(C#Cc2cc(F)cc(F)c2)c(C)nn1C [Table 1-8] | 100 | 100 | 100 | 100
CO/C=C(/C(=O)OC)c1c(C#Cc2ccc(Oc3ccc(C(F)(F)F)cc3)cc2)c(C)nn1C [Table 1-10] | 100 | 100 | 100 | 100
CO/C=C(/C(=O)OC)c1c(C#Cc2ccc(Oc3cc(C(F)(F)F)cc(C(F)(F)F)c3)cc2)c(C)nn1C [Table 1-11] | 100 | 100 | 100 | 100
CO/C=C(/C(=O)OC)c1c(C#Cc2ccc(Oc3ccc(F)cc3Cl)cc2)c(C)nn1C [Table 1-12] | 100 | 100 | 100 | 100
CO/C=C(/C(=O)OC)c1c(C#Cc2ccc(Oc3ccc(C(F)(F)F)cn3)cc2)c(C)nn1C [Table 1-13] | 100 | 100 | 100 | –
CCc1nn(C)c(/C(=C\OC)C(=O)OC)c1C#Cc1cc(C(F)(F)F)cc(C(F)(F)F)c1 [Table 1-14] | 100 | 100 | 74 | 100
CO/C=C(/C(=O)OC)c1c(C#Cc2cc(C(F)(F)F)cc(C(F)(F)F)c2)c(C(C)C)nn1C [Table 1-17] | 100 | 100 | 89 | 100
CCn1nc(C)c(C#Cc2cc(C(F)(F)F)cc(C(F)(F)F)c2)c1C(=COC)C(=O)OC [Table 1-21, Methyl α-[1-ethyl-3-methyl-4-{3,5-bis(trifluoromethyl)phenylethynyl}-5-pyrazole]-β-methoxyacrylate] | 100 | 100 | 100 | 100
CCn1nc(C)c(C#Cc2cc(C(F)(F)F)cc(C(F)(F)F)c2)c1/C(=C/OC)C(=O)OC [Table 1-22] | 100 | 100 | 90 | 100
CCc1nn(CC)c(/C(=C\OC)C(=O)OC)c1C#Cc1cc(C(F)(F)F)cc(C(F)(F)F)c1 [Table 1-28] | 100 | 100 | – | 100
CO/C=C(/C(=O)OC)c1c(C#Cc2ccc(OC(F)(F)F)cc2)c(C)nn1C [Table 1-29] | 100 | 100 | 85 | 100
CO/C=C(/C(=O)OC)c1c(C#Cc2ccc(OC(F)F)cc2)c(C)nn1C [Table 1-30] | 100 | 100 | – | 100
CCn1nc(C(F)(F)F)c(C#Cc2nc(OC(C)C)cc(C(F)(F)F)n2)c1/C(=C\OC)C(=O)OC [Table 1-37] | 100 | 100 | – | 100
CCn1nc(C(F)(F)F)c(C#Cc2cc(C(F)(F)F)cc(C(F)(F)F)c2)c1/C(=C\OC)C(=O)OC [Table 1-39] | 100 | 100 | – | 100
CCn1nc(C(F)(F)F)c(C#Cc2cc(C(F)(F)F)cc(C(F)(F)F)c2)c1/C(=C/OC)C(=O)OC [Table 1-40] | 100 | 100 | – | 100
CO/C=C(/C(=O)OC)c1c(OCc2cc(C(F)(F)F)cc(C(F)(F)F)c2)c(C)nn1C [Table 2-1] | 100 | 100 | 87 | 100
CO/C=C(/C(=O)OC)c1c(OCc2cccc(Oc3ccc(C(F)(F)F)cc3)c2)c(C)nn1C [Table 2-3] | 100 | 100 | 100 | –
CO/C=C(/C(=O)OC)c1c(OCc2ccc(C(C)(C)C)cc2)c(C)nn1C [Table 2-4] | 100 | 100 | 70 | –
CO/C=C(/C(=O)OC)c1c(OCc2ccc(C(F)(F)F)cc2)c(C)nn1C [Table 2-5] | 100 | 100 | 90 | –
CO/C=C(/C(=O)OC)c1c(OCc2cc(C(F)(F)F)cc(C(F)(F)F)c2)c(C(F)(F)F)nn1C [Table 2-26] | 100 | 100 | – | 100
CCc1nn(C)c(/C(=N\OC)C(=O)OC)c1CON=C(C)c1ccc(C(F)(F)F)cc1 [Table 3-73] | – | – | 100 | –
CCc1nn(C)c(/C(=N\OC)C(=O)OC)c1CON=C(C)c1cccc(OC(F)F)c1 [Table 3-76] | – | – | 100 | –
CO/C=C(/C(=O)OC)c1c(CON=C(C)c2ccc(OC(F)(F)F)cc2)c(C)nn1C [Table 3-101] | 100 | 100 | 100 | –
